Reference: paper PMC11887051, “Discovery of ONO-2920632 (VU6011887): A Highly Selective and CNS Penetrant TREK-2 (TWIK-Related K+ Channel 2) Preferring Activator In Vivo Tool Compound” (ACS Chemical Neuroscience, 2025)
Each block holds one compound with its values, some of them ahead of it.

Experiments:
Thyroid Hormone = assay: Eurofins Lead Profiling radioligand binding; parameters: species or system Rat; settings: title: 30 μM
Adenosine A2A = Adenosine A2A (Homo sapiens, UniProt P29274); assay: Eurofins Lead Profiling radioligand binding; settings: title: 30 μM
Rolipram = assay: Eurofins Lead Profiling radioligand binding; parameters: species or system Rat; settings: title: 30 μM
[1] = molecular target: Platelet Activating Factor (PAF) (Homo sapiens, UniProt P25105); assay: Eurofins Lead Profiling radioligand binding; settings: title: 30 μM
Platelet Activating Factor (PAF), sequence (P25105 whole entry): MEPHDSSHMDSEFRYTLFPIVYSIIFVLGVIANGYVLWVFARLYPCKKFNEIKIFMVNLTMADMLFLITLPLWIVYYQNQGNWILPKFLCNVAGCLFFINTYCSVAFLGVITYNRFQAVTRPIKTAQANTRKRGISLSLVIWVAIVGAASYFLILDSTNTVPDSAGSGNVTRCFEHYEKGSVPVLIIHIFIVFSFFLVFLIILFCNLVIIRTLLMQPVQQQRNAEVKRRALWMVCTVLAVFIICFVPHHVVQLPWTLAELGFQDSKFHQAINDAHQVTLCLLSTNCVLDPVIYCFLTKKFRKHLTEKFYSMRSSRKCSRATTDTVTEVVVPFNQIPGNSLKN

rat PO PK study = assay type: in vivo; settings: male, Sprague-Dawley, 3 mg/kg PO
Protocol: Plasma and brain tissue samples originating from in vivo studies were analyzed by electrospray ionization using an AB Sciex Q-TRAP 5500 (Foster City, CA) that was coupled to a Shimadzu LC-20AD pump (Columbia, MD) and a Leap Technologies CTC PAL auto-sampler (Carrboro, NC). Analytes were separated by gradient elution using a C18 column (3 x 50 mm, 3 mm; Fortis Technologies Ltd, Cheshire, UK) that was thermostated at 40 °C. HPLC mobile phase A was 0.1% formic acid in water (pH unadjusted); mobile phase B was 0.1% formic acid in acetonitrile (pH […]
min, with an isocratic hold for 0.5 min, before transitioning to 10% B over 0.05 min. The column was re-equilibrated (1 min) before the next sample injection. The total run time was 2.55 min, and the HPLC flow rate was 0.5 ml/min. The source temperature was set at 500 °C, and mass spectral analyses were performed using a Turbo-Ion spray source in positive ionization mode (5.0-kV spray voltage) and using multiple-reaction monitoring of transitions specific for the analytes. All data were analyzed using AB Sciex Analyst 1.5.1 software.
Brain plasma concentration ratio (Kp) was calculated by dividing brain concentration by plasma concentration for each animal. Unbound brain to unbound plasma concentration ratio (Kp,uu) is calculated using the following formula: Kp,uu = (Brain ng/g x brain fu)/(plasma ng/ml x plasma fu).
For determination of the plasma concentration-time profile, compounds were formulated in methyl cellulose and administered as a 3 mg/kg PO dose to male C57BL/6 mouse or SD rat (n = 2). For the same determination, compounds were formulated in HP-β-CD and administered as a 0.1 mg/kg IV dose to male beagle dog (n = 2).
Plasma samples originating from in vivo studies were analyzed by electrospray ionization using a Q-TRAP 5500 (AB Sciex) that was coupled to a Prominence UFLC XR (Shimadzu Corporation).
Analytes were separated by gradient elution using a Shim-pack XR-ODS II (2 x 75 mm, 2.2μm, Shimadzu Corporation) that was thermostated at 40 °C. HPLC mobile phase A was 5 mM ammonium acetate containing 0.2% formic acid in water (pH unadjusted); mobile phase B was […]
hold for 1.5 min, before transitioning to 10% B over 0.1 min. The column was re-equilibrated (0.9 min) before the next sample injection. The total run time was 4.0 min, and the HPLC flow rate was 0.5 ml/min. The source temperature was set at 600 °C, and mass spectral analyses were performed using a Turbo-Ion spray source in positive ionization mode and using multiple-reaction

Muscarinic M2 = Muscarinic M2 (Homo sapiens, UniProt P08172); assay: Eurofins Lead Profiling radioligand binding; settings: title: 30 μM
Muscarinic M2, sequence (P08172 whole entry): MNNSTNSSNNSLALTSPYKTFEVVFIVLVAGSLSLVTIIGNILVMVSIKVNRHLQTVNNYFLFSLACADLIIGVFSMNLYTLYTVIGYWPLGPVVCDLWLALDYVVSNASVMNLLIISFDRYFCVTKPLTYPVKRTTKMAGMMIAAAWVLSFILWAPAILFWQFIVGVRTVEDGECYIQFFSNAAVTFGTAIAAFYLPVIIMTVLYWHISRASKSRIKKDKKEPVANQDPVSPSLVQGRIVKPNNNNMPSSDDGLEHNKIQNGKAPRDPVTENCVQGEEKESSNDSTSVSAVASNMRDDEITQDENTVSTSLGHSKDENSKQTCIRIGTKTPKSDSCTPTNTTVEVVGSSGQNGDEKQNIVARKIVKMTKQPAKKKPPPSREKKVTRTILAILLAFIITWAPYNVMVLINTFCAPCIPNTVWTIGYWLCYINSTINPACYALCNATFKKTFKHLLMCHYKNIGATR

Ryanodine = assay: Eurofins Lead Profiling radioligand binding; parameters: species or system Rat; settings: title: 30 μM
Transporter, GABA = Transporter, GABA (Rattus norvegicus, UniProt P23978); assay: Eurofins Lead Profiling radioligand binding; settings: title: 30 μM
[2] = mouse brain homogenate binding; assay type: in vitro ADME; settings: read-out: mouse brain fu
Endothelin ETB = Endothelin ETB (Homo sapiens, UniProt P24530); assay: Eurofins Lead Profiling radioligand binding; settings: title: 30 μM
Endothelin ETB, sequence (P24530 27-442): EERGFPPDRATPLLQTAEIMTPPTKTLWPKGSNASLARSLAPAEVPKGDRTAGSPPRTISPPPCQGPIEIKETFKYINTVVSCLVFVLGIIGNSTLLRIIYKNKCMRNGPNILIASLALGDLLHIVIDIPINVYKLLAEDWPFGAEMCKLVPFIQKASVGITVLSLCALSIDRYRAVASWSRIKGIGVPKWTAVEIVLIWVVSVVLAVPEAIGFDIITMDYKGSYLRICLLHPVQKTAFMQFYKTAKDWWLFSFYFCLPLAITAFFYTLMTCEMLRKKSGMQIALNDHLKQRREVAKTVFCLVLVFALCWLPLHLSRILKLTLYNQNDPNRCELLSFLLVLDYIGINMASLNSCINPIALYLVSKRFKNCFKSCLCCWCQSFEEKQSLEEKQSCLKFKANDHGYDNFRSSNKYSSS

Neuropeptide Y Y2 = Neuropeptide Y Y2 (Homo sapiens, UniProt P49146); assay: Eurofins Lead Profiling radioligand binding; settings: title: 30 μM
Neuropeptide Y Y2, sequence (P49146 whole entry): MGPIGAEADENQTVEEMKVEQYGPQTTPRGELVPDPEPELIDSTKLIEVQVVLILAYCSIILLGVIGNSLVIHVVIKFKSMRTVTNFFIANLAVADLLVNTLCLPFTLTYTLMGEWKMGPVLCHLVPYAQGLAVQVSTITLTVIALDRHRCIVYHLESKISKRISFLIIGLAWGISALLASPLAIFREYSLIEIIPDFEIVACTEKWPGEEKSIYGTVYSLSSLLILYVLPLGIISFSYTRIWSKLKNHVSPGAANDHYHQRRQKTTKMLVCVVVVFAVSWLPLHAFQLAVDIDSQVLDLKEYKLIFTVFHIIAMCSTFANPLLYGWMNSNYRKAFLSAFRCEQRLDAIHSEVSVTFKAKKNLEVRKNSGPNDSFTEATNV

TREK-2 [3] = molecular target: T1, TREK-2 (Homo sapiens, UniProt P57789); assay: human 86Rb flux K2P selectivity panel; assay type: cell-based
T1 sequence (P57789 1-538): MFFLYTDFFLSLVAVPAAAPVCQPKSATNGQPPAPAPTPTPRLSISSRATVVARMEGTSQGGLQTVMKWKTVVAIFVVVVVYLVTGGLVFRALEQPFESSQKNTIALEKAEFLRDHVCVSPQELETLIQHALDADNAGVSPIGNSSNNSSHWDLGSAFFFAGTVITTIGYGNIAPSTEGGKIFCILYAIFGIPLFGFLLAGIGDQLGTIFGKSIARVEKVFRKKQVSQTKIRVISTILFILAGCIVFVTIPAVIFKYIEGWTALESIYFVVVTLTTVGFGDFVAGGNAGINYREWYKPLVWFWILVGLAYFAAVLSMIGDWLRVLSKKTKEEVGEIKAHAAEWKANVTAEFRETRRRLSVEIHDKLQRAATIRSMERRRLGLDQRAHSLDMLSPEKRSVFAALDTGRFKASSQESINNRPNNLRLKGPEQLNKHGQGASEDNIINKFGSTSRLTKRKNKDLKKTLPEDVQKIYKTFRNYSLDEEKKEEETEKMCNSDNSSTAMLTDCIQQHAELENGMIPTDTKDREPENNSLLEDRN

[4] = molecular target: Nicotinic Acetylcholine α3β4 (Homo sapiens, UniProt P30926+P32297); assay: Eurofins Lead Profiling radioligand binding; settings: title: 30 μM
Nicotinic Acetylcholine α3β4, sequence (P32297 32-505): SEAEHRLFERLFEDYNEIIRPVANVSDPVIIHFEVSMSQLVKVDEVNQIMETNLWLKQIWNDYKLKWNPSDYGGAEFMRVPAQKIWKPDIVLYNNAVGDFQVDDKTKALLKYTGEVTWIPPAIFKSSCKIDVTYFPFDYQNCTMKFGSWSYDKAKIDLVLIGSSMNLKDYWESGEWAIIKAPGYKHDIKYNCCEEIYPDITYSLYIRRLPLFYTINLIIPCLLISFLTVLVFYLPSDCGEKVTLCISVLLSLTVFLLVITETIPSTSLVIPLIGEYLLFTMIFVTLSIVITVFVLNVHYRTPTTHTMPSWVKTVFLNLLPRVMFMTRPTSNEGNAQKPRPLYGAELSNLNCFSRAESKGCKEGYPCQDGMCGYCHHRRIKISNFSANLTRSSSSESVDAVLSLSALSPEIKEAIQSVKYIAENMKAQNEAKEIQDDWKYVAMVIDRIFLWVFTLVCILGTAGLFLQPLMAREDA
Nicotinic Acetylcholine α3β4, sequence (P30926 22-498): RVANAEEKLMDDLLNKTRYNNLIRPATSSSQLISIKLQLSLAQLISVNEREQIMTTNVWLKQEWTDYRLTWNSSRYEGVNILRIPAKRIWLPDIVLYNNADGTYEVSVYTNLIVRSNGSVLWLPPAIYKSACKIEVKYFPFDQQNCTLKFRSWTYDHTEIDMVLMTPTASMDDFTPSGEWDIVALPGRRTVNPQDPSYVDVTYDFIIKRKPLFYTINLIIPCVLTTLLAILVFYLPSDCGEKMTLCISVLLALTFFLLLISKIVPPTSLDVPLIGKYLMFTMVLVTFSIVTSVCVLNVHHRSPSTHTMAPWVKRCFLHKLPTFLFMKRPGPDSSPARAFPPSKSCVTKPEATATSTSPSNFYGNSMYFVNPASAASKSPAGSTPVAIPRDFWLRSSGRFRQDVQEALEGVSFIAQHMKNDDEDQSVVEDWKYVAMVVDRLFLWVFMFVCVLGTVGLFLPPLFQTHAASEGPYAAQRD

Prostanoid EP4 = Prostanoid EP4 (Homo sapiens, UniProt P35408); assay: Eurofins Lead Profiling radioligand binding; settings: title: 30 μM
Prostanoid EP4, sequence (P35408 whole entry): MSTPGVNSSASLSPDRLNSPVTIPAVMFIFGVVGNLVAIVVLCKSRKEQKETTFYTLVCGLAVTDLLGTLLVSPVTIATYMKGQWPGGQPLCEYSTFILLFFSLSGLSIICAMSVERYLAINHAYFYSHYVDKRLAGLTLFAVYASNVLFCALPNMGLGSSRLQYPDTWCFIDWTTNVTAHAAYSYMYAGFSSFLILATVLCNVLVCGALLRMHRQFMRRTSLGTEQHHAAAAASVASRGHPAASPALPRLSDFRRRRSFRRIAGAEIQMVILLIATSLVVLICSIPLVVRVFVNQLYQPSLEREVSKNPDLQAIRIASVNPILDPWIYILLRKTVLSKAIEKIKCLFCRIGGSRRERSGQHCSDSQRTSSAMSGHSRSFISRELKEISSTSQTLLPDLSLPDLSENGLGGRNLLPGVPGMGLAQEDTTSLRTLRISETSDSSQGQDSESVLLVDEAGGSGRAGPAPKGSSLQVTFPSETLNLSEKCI

Adrenergic β2 = Adrenergic β2 (Homo sapiens, UniProt P07550); assay: Eurofins Lead Profiling radioligand binding; settings: title: 30 μM
Adrenergic β2, sequence (P07550 whole entry): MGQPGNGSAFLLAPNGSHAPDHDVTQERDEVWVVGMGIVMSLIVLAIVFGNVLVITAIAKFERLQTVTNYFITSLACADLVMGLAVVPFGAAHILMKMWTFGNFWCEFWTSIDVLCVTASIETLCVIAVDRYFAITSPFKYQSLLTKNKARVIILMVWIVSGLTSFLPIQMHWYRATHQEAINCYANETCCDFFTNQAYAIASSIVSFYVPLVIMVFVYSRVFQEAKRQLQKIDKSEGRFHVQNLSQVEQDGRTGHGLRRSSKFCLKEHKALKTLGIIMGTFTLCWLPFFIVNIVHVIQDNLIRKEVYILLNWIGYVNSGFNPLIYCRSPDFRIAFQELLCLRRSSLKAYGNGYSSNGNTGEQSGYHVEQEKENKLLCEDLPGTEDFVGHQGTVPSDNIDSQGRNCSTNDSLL

Adenosine A3 = Adenosine A3 (Homo sapiens, UniProt P0DMS8); assay: Eurofins Lead Profiling radioligand binding; settings: title: 30 μM
Adenosine A3, sequence (P0DMS8 whole entry): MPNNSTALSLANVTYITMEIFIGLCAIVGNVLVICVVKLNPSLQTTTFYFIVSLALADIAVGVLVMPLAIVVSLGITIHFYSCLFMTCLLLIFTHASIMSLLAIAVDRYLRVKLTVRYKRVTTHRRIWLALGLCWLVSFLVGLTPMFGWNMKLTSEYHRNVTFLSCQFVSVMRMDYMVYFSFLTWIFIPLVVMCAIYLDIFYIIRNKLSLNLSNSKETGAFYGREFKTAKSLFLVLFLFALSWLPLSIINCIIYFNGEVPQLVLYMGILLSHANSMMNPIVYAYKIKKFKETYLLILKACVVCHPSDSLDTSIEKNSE

Bradykinin B2 = Bradykinin B2 (Homo sapiens, UniProt P30411); assay: Eurofins Lead Profiling radioligand binding; settings: title: 30 μM
Bradykinin B2, sequence (P30411 whole entry): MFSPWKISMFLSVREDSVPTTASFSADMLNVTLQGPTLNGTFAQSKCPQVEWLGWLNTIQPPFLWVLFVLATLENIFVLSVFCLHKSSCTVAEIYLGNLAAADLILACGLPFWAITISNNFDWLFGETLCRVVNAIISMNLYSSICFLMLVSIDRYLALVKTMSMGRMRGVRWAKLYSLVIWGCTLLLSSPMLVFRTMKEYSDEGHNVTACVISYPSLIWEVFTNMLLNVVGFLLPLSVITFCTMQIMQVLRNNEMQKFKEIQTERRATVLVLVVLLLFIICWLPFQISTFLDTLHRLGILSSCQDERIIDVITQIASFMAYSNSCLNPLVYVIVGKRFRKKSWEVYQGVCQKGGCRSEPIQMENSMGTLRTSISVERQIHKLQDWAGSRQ

[5] = test system: 72 GPCRs, ion channels and transporters; assay: Eurofins Lead Profiling panel (whole panel); assay type: binding; settings: for ancillary pharmacology panel result: 72 GPCRs, ion channels and transporters
TREK-2 [6] = molecular target: T1, TREK-2; assay: human TREK-2 MPC assay; assay type: cell-based; parameters: expressed in transfected cells; host or cells: HEK293

Compound: O=C(NCc1ccc(OC(F)(F)F)cc1F)c1ccc2ncnn2c1 [Compound 19b]
% Inhibition at 10 µM (Thyroid Hormone): 9% | inhibition (Adenosine A2A): 10% | % Inhibition at 10 µM (Rolipram): 13% | inhibition [1]: 12% | concentration at 2 h (rat PO PK study; brain, 2 h, read-out: total brain concentration): 2680 nM | concentration at 24 h (rat PO PK study; brain, 24 h, read-out: total brain concentration): 2890 nM | Cmax (rat PO PK study; plasma): 10.3 µM | Tmax (rat PO PK study; plasma): 7 h | half-life (rat PO PK study; plasma): > 1440 min | inhibition (Muscarinic M2): -3% | % Inhibition at 10 µM (Ryanodine): 6% | inhibition (Transporter, GABA): -6% | fraction unbound at 6 h, 1 µM [2]: 0.28 | inhibition at 10 µM (Endothelin ETB): 4% | inhibition (Neuropeptide Y Y2): -1% | TREK-2 preference in 86Rb flux assay (TREK-2 [3]; TREK-2 over TREK-1): ~46 fold | activity at TREK-2 in 86Rb flux panel (TREK-2 [3]; data is not shown): submicromolar activity | inhibition [4]: -17% | inhibition (Prostanoid EP4): 14% | inhibition (Adrenergic β2): 2% | inhibition (Adenosine A3): 21% | inhibition at 10 µM (Bradykinin B2): 5% | displacement of any radioligand in the panel ([5]; 30 μM, 72 targets): ≤ 50% | ancillary pharmacology panel result [5]: clean ancillary pharmacology | ancillary pharmacology panel result ([5]; listed as ONO-2920632): no significant activity

EC50 (TREK-2 [6]): 190 nM | Emax (TREK-2 [6]): 142%
Compound: O=C(NCc1ccc(OC(F)(F)F)cc1Cl)c1ccc2nncn2c1 [Compound 20]
